{
  "source": "paper PMC12410356",
  "about": "(International Journal for Parasitology: Drugs and Drug …, 2025)",
  "key": {"[1]": {"tested_on": "E. multilocularis metacestode vesicles", "test": "Phosphoglucose isomerase (PGI) release assay (damage-marker release) on metacestode vesicles", "format": "cell-based, Echinococcus multilocularis", "details": "overview screen, 10 μM, singlets, relative to 0.1 % Triton X-100, DMSO subtracted; for PGI d5 (relative PGI release): 5 days; for PGI d12 (relative PGI release): 12 days"}, "[2]": {"tested_on": "E. multilocularis metacestode vesicles", "test": "Metacestode vesicle viability assay (ATP, CellTiter-Glo)", "format": "cell-based, Echinococcus multilocularis", "details": "overview screen, 10 μM, singlets, 12 days, relative to DMSO control", "protocol": "Viability was assessed after 12 days using the same metacestode vesicles as for the PGI release assay. Triton X-100 was added to each well to a final concentration of 0.1 %. Subsequently the metacestode vesicles were broken mechanically and 50 μL of the supernatant was mixed with 50 μL of CellTiter-Glo® buffer (Promega, Dübendorf, Switzerland). Measurements were performed on a HIDEX Sense microplate reader."}},
  "data": [
    {"smiles": "CC(=O)N[C@H](C)C(=O)N[C@H](Cc1ccccc1)C(=O)O", "note": "[MMV1580845]", "values": [
      {"measurement": "PGI d5 (relative PGI release)", "setting": "[1]", "value": 0.2541, "unit": "%"},
      {"measurement": "PGI d12 (relative PGI release)", "setting": "[1]", "value": -2.372, "unit": "%"},
      {"measurement": "Viability d12 (relative viability)", "setting": "[2]", "value": 90.1704, "unit": "%"}
    ]},
    {"smiles": "Nc1cnn(C2OC(CO)C(O)C2O)c(=O)n1", "note": "(stereo not drawn) [MMV1580495]", "values": [
      {"measurement": "PGI d5 (relative PGI release)", "setting": "[1]", "value": 0.6182, "unit": "%"},
      {"measurement": "PGI d12 (relative PGI release)", "setting": "[1]", "value": 10.061, "unit": "%"},
      {"measurement": "Viability d12 (relative viability)", "setting": "[2]", "value": 84.6299, "unit": "%"}
    ]},
    {"smiles": "Cc1cc(Nc2ccc(F)cc2)nc(SCc2nc3ccccc3[nH]2)n1", "note": "[MMV1582498]", "values": [
      {"measurement": "PGI d5 (relative PGI release)", "setting": "[1]", "value": 0.3642, "unit": "%"},
      {"measurement": "PGI d12 (relative PGI release)", "setting": "[1]", "value": 1.096, "unit": "%"},
      {"measurement": "Viability d12 (relative viability)", "setting": "[2]", "value": 46.2574, "unit": "%"}
    ]},
    {"smiles": "CCc1ccccc1OCCN1CCCCCC1", "note": "[MMV1633962]", "values": [
      {"measurement": "PGI d5 (relative PGI release)", "setting": "[1]", "value": 1.217, "unit": "%"},
      {"measurement": "PGI d12 (relative PGI release)", "setting": "[1]", "value": -18.8642, "unit": "%"},
      {"measurement": "Viability d12 (relative viability)", "setting": "[2]", "value": 159.976, "unit": "%"}
    ]},
    {"smiles": "O=C(CC1Sc2ncnn2C1=O)Nc1ccc(Br)cc1", "note": "(stereo not drawn) [MMV214956]", "values": [
      {"measurement": "PGI d5 (relative PGI release)", "setting": "[1]", "value": -1.614, "unit": "%"},
      {"measurement": "PGI d12 (relative PGI release)", "setting": "[1]", "value": -20.0728, "unit": "%"},
      {"measurement": "Viability d12 (relative viability)", "setting": "[2]", "value": 47.1606, "unit": "%"}
    ]},
    {"smiles": "CCC(C)(C)c1ccc(CC(C)CN2C[C@@H](C)O[C@@H](C)C2)cc1.Cl", "note": "(stereo partly drawn) [MMV1634358]", "values": [
      {"measurement": "PGI d5 (relative PGI release)", "setting": "[1]", "value": 0.7921, "unit": "%"},
      {"measurement": "PGI d12 (relative PGI release)", "setting": "[1]", "value": -20.4097, "unit": "%"},
      {"measurement": "Viability d12 (relative viability)", "setting": "[2]", "value": 23.2957, "unit": "%"}
    ]},
    {"smiles": "OC1O[C@H](CSc2ccc(F)cc2)[C@@H](O)[C@H]1O", "note": "(stereo partly drawn) [MMV1581550]", "values": [
      {"measurement": "PGI d5 (relative PGI release)", "setting": "[1]", "value": -2.303, "unit": "%"},
      {"measurement": "PGI d12 (relative PGI release)", "setting": "[1]", "value": -13.5328, "unit": "%"},
      {"measurement": "Viability d12 (relative viability)", "setting": "[2]", "value": 95.5206, "unit": "%"}
    ]},
    {"smiles": "O=C(NCc1ccc(F)cc1)c1c(O)c2ncccc2[nH]c1=O", "note": "[MMV1782097]", "values": [
      {"measurement": "PGI d5 (relative PGI release)", "setting": "[1]", "value": 0.7945, "unit": "%"},
      {"measurement": "PGI d12 (relative PGI release)", "setting": "[1]", "value": -0.6563, "unit": "%"},
      {"measurement": "Viability d12 (relative viability)", "setting": "[2]", "value": 171.617, "unit": "%"}
    ]},
    {"smiles": "C[C@H]1CC[C@]2(NC1)O[C@H]1C[C@H]3[C@@H]4CC[C@H]5C[C@@H](O)CC[C@]5(C)[C@H]4CC[C@]3(C)[C@H]1[C@@H]2C.Cl", "note": "[MMV003069]", "values": [
      {"measurement": "PGI d5 (relative PGI release)", "setting": "[1]", "value": -0.8739, "unit": "%"},
      {"measurement": "PGI d12 (relative PGI release)", "setting": "[1]", "value": -0.2652, "unit": "%"},
      {"measurement": "Viability d12 (relative viability)", "setting": "[2]", "value": 243.729, "unit": "%"}
    ]},
    {"smiles": "CCc1cc(O)c(Oc2ccc(C(N)=O)cc2F)cc1F", "note": "[MMV1578564]", "values": [
      {"measurement": "PGI d5 (relative PGI release)", "setting": "[1]", "value": 19.4124, "unit": "%"},
      {"measurement": "PGI d12 (relative PGI release)", "setting": "[1]", "value": -2.538, "unit": "%"},
      {"measurement": "Viability d12 (relative viability)", "setting": "[2]", "value": 125.644, "unit": "%"}
    ]},
    {"smiles": "Nc1cccc(-c2nc(N)nc(NC3Cc4ccccc4C3)n2)c1", "note": "[MMV1581555]", "values": [
      {"measurement": "PGI d5 (relative PGI release)", "setting": "[1]", "value": 2.438, "unit": "%"},
      {"measurement": "PGI d12 (relative PGI release)", "setting": "[1]", "value": -5.225, "unit": "%"},
      {"measurement": "Viability d12 (relative viability)", "setting": "[2]", "value": 66.1297, "unit": "%"}
    ]},
    {"smiles": "Nc1nnnn1CCOc1c2[nH]c3ccc(Cl)cc3c2cc2c1[nH]c1ccc(Cl)cc12", "note": "[MMV1633966]", "values": [
      {"measurement": "PGI d5 (relative PGI release)", "setting": "[1]", "value": 3.53, "unit": "%"},
      {"measurement": "PGI d12 (relative PGI release)", "setting": "[1]", "value": 16.3673, "unit": "%"},
      {"measurement": "Viability d12 (relative viability)", "setting": "[2]", "value": 104.455, "unit": "%"}
    ]},
    {"smiles": "CCCCSc1nc(N)c2[nH]c(=O)c(=O)n(Cc3ccccc3)c2n1", "note": "[MMV1579783]", "values": [
      {"measurement": "PGI d5 (relative PGI release)", "setting": "[1]", "value": 3.365, "unit": "%"},
      {"measurement": "PGI d12 (relative PGI release)", "setting": "[1]", "value": -15.2556, "unit": "%"},
      {"measurement": "Viability d12 (relative viability)", "setting": "[2]", "value": 63.4578, "unit": "%"}
    ]},
    {"smiles": "CC(C)(C)c1cc(CCC(=O)N2CCC2)cc(C(C)(C)C)c1O", "note": "[MMV1229204]", "values": [
      {"measurement": "PGI d5 (relative PGI release)", "setting": "[1]", "value": -1.987, "unit": "%"},
      {"measurement": "PGI d12 (relative PGI release)", "setting": "[1]", "value": -10.8726, "unit": "%"},
      {"measurement": "Viability d12 (relative viability)", "setting": "[2]", "value": 39.6611, "unit": "%"}
    ]},
    {"smiles": "NC(=O)c1cnc2ccc(S(=O)(=O)c3ccccc3)cc2c1Nc1ccc(O)cc1", "note": "[MMV1580848]", "values": [
      {"measurement": "PGI d5 (relative PGI release)", "setting": "[1]", "value": -0.9531, "unit": "%"},
      {"measurement": "PGI d12 (relative PGI release)", "setting": "[1]", "value": 29.1599, "unit": "%"},
      {"measurement": "Viability d12 (relative viability)", "setting": "[2]", "value": 51.7682, "unit": "%"}
    ]},
    {"smiles": "CO[C@@]1(NC(=O)Cc2cccs2)C(=O)N2C(C(=O)O)=C(COC(N)=O)CS[C@@H]21", "note": "[MMV1578559]", "values": [
      {"measurement": "PGI d5 (relative PGI release)", "setting": "[1]", "value": -1.349, "unit": "%"},
      {"measurement": "PGI d12 (relative PGI release)", "setting": "[1]", "value": -7.289, "unit": "%"},
      {"measurement": "Viability d12 (relative viability)", "setting": "[2]", "value": 75.9823, "unit": "%"}
    ]}
  ]
}
